# Measurements taken from US9127040B2, “Regulation of sodium channels by PLUNC proteins” (The University of North Carolina at Chapel Hill, priority 2011, dated 2015).
# Entries after “also recorded” stand apart in the source; their conditions may differ. Ends that are not written are not given here.
# T1: αβγENaC (Rattus norvegicus, UniProt P37089+P37090+P37091)
# T1 construct: expressed in transfected cells; host or cells: Xenopus laevis oocytes (cRNA injection)
# T1 sequence (P37089 1-698): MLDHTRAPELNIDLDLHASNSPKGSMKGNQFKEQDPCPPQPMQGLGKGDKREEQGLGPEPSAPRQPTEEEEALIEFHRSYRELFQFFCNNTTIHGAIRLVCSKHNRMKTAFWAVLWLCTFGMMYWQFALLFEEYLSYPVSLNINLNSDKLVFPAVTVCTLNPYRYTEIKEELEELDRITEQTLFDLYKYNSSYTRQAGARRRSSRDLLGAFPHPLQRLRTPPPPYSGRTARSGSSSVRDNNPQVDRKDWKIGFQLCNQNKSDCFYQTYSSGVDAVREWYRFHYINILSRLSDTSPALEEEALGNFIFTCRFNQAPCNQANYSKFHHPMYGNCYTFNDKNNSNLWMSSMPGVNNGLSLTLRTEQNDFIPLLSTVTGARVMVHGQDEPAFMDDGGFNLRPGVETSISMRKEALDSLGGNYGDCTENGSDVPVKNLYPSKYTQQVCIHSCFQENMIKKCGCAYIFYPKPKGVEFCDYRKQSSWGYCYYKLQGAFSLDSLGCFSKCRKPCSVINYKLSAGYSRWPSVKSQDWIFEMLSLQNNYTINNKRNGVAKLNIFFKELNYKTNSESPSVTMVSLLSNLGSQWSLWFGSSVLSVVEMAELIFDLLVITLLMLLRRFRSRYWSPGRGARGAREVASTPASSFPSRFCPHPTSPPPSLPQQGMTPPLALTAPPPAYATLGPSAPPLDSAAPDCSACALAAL
# T1 sequence (P37090 1-638): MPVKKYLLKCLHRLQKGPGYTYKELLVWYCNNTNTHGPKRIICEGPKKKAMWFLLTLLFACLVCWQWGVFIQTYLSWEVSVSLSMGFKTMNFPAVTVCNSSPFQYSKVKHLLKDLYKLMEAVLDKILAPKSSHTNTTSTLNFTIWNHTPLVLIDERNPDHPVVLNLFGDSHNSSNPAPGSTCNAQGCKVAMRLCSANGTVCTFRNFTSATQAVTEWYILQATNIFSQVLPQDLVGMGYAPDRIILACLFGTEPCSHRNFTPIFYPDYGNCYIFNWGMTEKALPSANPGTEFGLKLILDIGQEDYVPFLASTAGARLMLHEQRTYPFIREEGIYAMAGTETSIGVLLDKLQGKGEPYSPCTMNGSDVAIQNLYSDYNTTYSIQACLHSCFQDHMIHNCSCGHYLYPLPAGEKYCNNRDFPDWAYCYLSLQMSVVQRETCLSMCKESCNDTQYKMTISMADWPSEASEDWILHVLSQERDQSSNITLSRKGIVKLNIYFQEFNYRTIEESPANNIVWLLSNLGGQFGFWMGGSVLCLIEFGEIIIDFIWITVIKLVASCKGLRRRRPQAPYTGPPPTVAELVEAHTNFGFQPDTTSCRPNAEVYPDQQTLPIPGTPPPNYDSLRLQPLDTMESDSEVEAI
# T1 sequence (P37091 1-650): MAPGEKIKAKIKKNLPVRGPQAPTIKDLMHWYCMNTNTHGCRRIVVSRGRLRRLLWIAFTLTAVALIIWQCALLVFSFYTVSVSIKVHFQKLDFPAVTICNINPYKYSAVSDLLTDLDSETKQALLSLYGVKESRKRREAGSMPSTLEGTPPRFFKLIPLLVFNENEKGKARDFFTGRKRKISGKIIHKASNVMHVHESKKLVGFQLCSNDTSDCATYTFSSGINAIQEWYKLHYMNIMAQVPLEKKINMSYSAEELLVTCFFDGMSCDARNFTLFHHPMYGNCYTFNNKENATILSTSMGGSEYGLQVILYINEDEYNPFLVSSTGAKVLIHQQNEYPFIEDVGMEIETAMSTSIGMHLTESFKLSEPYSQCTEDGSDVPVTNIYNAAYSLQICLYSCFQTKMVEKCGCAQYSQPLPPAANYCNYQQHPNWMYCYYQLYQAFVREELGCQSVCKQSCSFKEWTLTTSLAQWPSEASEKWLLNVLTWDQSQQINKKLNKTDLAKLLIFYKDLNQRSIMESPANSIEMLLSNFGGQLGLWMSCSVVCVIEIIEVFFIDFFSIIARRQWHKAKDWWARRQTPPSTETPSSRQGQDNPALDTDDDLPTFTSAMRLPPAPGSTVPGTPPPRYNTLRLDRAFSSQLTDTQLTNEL
# B1: SPLUNC1: human SPLUNC1 (SEQ ID NO:1), 256 amino acid secreted PLUNC family protein; rSPLUNC1 is the purified V5/6His-tagged recombinant form (protein, listed as Homo sapiens)
# chain: MFQTGGLIVFYGLLAQTMAQFGGLPVPLDQTLPLNVNPALPLSPTGLAGSLTNALSNGLLSGGLLGILENLPLLDILKPGGGTSGGLLGGLLGKVTSVIPGLNNIIDIKVTDPQLLELGLVQSPDGHRLYVTIPLGIKLQVNTPLVGASLLRLAVKLDITAEILAVRDKQERIHLVLGDCTHSPGSLQISLLDGLGPLPIQGLLDSLTGILNKVLPELVQGNVCPLVNEVLRGLDITLVHDIVNMLIHGLQFVIKV
# modifications: V5/6His tag in recombinant form
# notes: rSPLUNC1 is the purified V5/6His-tagged recombinant form
# Columns and labels:
# αβγENaC [1] = molecular target: T1, αβγENaC; assay: Amiloride-sensitive whole cell current, two electrode voltage clamp, Xenopus laevis oocytes expressing αβγENaC; format: cell-based
# Experimental: Xenopus laevis oocytes were harvested and injected as described (Donaldson, et al., J. Biol. Chem. 277:8338 (2002)). Defolliculated healthy stage V-VI oocytes were injected with 0.3 ng of CRNA of each ENaC subunit. Injected oocytes were kept in modified Barth's saline (in mM: 88 NaCl, 1 KCl, 2.4 NaHCO3, 0.3 Ca(NO3)2, 0.41 CaCl2, 0.82 MgSO4, and 15 HEPES, adjusted to pH 7.35 with Tris). Oocytes were studied 24 hr after injection using the two electrode voltage clamp technique as previously described (Donaldson, et al., J. Biol. Chem. 277:8338 (2002)). Oocytes were clamped at a holding potential of −60 mV. The change in amiloride-sensitive whole cell current as an indicator of ENaC activity was determined by subtracting the corresponding current value measured in the presence of 10 μM amiloride from that measured before the application of amiloride. Where appropriate, oocytes were incubated with G22-A39 or ABC for 1 h prior to recording. In some experiments β-ENaC^S518C was used which forms ENaCs that are locked into an open probability near 1.0 by exposure to the sulthydral reactive reagent [2-(Trimethyl-ammonium)ethyl]methanethiosulphonate bromide (MTSET). MTSET was added at a concentration of 1 mM to the oocyte bath as previously described (Snyder, J. Clin. Invest. 105: 45 (2000)).
# αβγENaC [2] = molecular target: T1, αβγENaC; assay: Amiloride-sensitive whole cell current, two electrode voltage clamp, Xenopus laevis oocytes expressing αβγENaC; format: cell-based; conditions: 100 μM in bath for 2 h; pH 6 vs 7.4
# Experimental for CF HBECs: To label airway surface liquid, Ringer containing Texas Red-dextran (2 mg/ml; Invitrogen) was added to human bronchial epithelial culture mucosal surfaces. Perfluorocarbon was added mucosally to prevent evaporation of the airway surface liquid and the culture placed in a chamber containing 100 μl Ringer on the stage of a Leica SP5 confocal microscope with a 63× glycerol immersion objective. 5 points per culture were scanned and an average airway surface liquid height determined. For confocal microscopy human bronchial epithelial cultures were bathed serosally in a modified Ringer solution containing (mM): 116 NaCl, 10 NaHCO3, 5.1 KCl, 1.2 CaCl2, 1.2 MgCl2, 20 TES, 10 glucose, pH 7.4). At all other times, human bronchial epithelial cultures were maintained in a modified BEGM growth medium which contained 24 mM NaHCO3 gassed with 5% CO2.
# To label the ASL, PBS containing 10 kDa Rhodamine dextran (0.2-2 mg/mL; Invitrogen, Carlsbad, Calif., USA) was added to HBEC mucosal surfaces as previously described (Tarran et al., Mol. Cell 8:149 (2001)). When added, peptides with or without 100 nM neutrophil elastase, 1 U/mL aprotinin, activated neutrophil supernatant (ANS) (Haynes et al., Am. J. Physiol. Heart Circ. Physiol. 294:H379 (2008)) or 10 μM sivelestat (Sigma-Aldrich, St Louis, Mo., USA) were added to the mucosal surface along with the Rhodamine dextran. Bumetanide (100 μM) was added to the serosal solution.
Molecule,inhibition of ENaC current by peptide in bath (αβγENaC [1]; 10 μM in oocyte bath for 1 h),effect of N-terminal biotinylation on ability to inhibit ENaC (αβγENaC [1]; n=6),"ASL absorption (CF HBECs; 10 μM apical, over 24 h)","CF ASL absorption, paired cultures (CF HBECs; 100 μM SPLUNC1 or S18)",IC50 (CF HBECs; 8 h) [nM],"CF ASL hyperabsorption in the presence of activated neutrophil supernatant (CF HBECs; 8 h ASL height, ANS)","CF ASL hyperabsorption in the presence of neutrophil elastase (CF HBECs; 8 h ASL height, neutrophil elastase)","heat stability: inhibition of CF ASL absorption after heating (CF HBECs; peptide heated to 67° C. for 30 min, also with neutrophil elastase)",inhibition of amiloride-sensitive ENaC current at pH 6 (αβγENaC [2]),activation of ENaC currents by prostasin (CAP1) and CAP2 (αβγENaC [1]; SPLUNC1 co-expressed),trypsin stimulation of ENaC activity (αβγENaC [1]; SPLUNC1 co-expressed),"inhibition of ENaC by C-terminal truncation mutants (αβγENaC [1]; co-expressed in oocytes, all p<0.0001 where significant)",CF ASL volume homeostasis in SPLUNC1 knockdown CF HBECs (CF HBECs; recombinant SPLUNC1 together with POPSO-Ringer)
GGLPVPLDQTLPLNVNPA [S18],inhibited ENaC to the same degree as the full length protein; also recorded: inhibits both basal and trypsin-stimulated ENaC current,no effect,significantly blocked ASL absorption,inhibited CF ASL absorption,600,prevented CF ASL hyperabsorption,prevented CF ASL hyperabsorption,no effect on the ability of S18 to inhibit CF ASL absorption,still inhibits ENaC,,,,
B1,,,,,,,,,abolished at pH 6,significantly reduced,attenuated,Significant inhibition,required to restore CF ASL volume homeostasis
